Data: patent US20220357341A1, “COMPOSITIONS AND METHODS FOR AN IL-17 TARGET ENGAGEMENT ASSAY WITH SMALL MOLECULE MODULATORS” (Janssen Pharmaceutica NV, priority 2019, published 2022)

B1: mAb4538 (Janssen Biotech, Inc.) (antibody, human IgG1, lambda, V domains shown)
VH: QVQLQQSGPGLVKPSQTLSLTCAISGDSVSSSSAAWGWIRQSPSRGLEWLGRISYRSKWYNDYAVSVKSRITINPDTSKNQFSLQLNSVTPEDTAVYYCAREVDSMYYSYFDIWGQGTLVTVSS
VL: EIVLTQSPATLSLSPGERATLSCRASQNVWAFYLAWYQQKPGQAPRLLIYGASNRATGIPARFSGSGSGTDFTLTISSLEPEDFAVYYCQQYRSTLSLTFGQGTKVEIKG
notes: also called human mAb4538 antibody

These molecules were tested against T1, IL-17 (Homo sapiens, UniProt Q16552) (assay: Free IL-17 ELISA: capture antibody of DuoSet ELISA kit DY317 paired with mAb4538 as detection agent, IL-17 titration with 10 μM SM modulator). Conditions: capture antibody of DuoSet ELISA kit DY317, detection agent mAb4538 500 ng/ml, FIGS. 2A-2F.
T1 construct: serial dilutions of recombinant IL-17 were prepared in diluent
T1 sequence (Q16552 24-155): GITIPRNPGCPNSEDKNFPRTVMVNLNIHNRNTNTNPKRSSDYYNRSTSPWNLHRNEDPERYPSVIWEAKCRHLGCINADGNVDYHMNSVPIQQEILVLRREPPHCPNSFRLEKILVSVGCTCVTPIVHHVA
Format: binding
Procedure: Two-fold and 8-point serial dilutions of recombinant IL-17 were prepared in diluent starting from 1 ng/ml, in duplicate. For testing differentiating property on SM modulators, IL-17 calibration samples were prepared in the presence of 10 μM SM modulators or vehicle control containing 0.1% DMSO. IL-17 samples were incubated for 1 hour at 37° C.
(§1) High binding 96-well plates were coated with 100 μL/well of 4 μg/ml capture antibody in PBS overnight at room temperature. Coated plates were washed 6×400 μL/well on plate washer (Zoom HT Microplate Washer) and blocked with 300 μL/well blocker (1% BSA in PBS) at room temperature for 2.5 hours followed by 6×400 μL/well on plate washer.
Samples were prepared by incubating titrated IL-17 with SM modulators at final concentration of 10 μM. IL-17 levels were measured in ELISA assay by adding 95 μL/well samples to the capture antibody coated plates. Plates were kept at room temperature for 30 minutes and then 5 μL/well of detecting agent were added to a final of 500 ng/mL, kept at room temperature for another 30 minutes, followed by washing 6×400 μL/well on plate washer. Development of color for measurement was performed by adding streptavidin conjugated horseradish peroxidase at 100 μL/well and incubated for 20 minutes at room temperature in the dark, followed by 6×400 μL/well on plate washer, and then addition of 100 μL/well pf substrate solution, incubated for 20 minutes at room temperature in the dark. Reaction was then stopped by addition of 50 μL/well of stop solution and plates were measured in plate reader at 450-540 nm.
(§2) Optical density (OD) readout from plate reader (Molecular Devices Spectra Max 340fPC) were analyzed with Softmax Pro6.3 and GraphPad Prism, and plotted as dose response curve of OD values vs IL-17 concentrations.

Molecule | detection of free IL-17 versus SM modulator-bound IL-17 (OD vs IL-17 concentration)
O=C1CNC(=O)[C@@H](Cc2ccc(NC(=O)[C@H](Cc3ccccc3Cl)NC(=O)Cc3ccccc3)cc2)NC(=O)CC2(CCCC2)CC(=O)NCCCCCN1 [Compound #5] | detection of free IL-17, but not modulator-bound IL-17
C[C@H]1NC(=O)[C@@H](Cc2ccc(NC(=O)[C@H](Cc3ccccc3Cl)NC(=O)Cc3ccc(CO)cc3)cc2)NC(=O)CC2(CCCC2)CC(=O)NCCCCCNC1=O [Compound #4] | detection of free IL-17, but not modulator-bound IL-17
C[C@H]1NC(=O)[C@@H](Cc2ccc(NC(=O)[C@H](Cc3ccccc3Cl)NC(=O)Cc3ccc(F)cc3)cc2)NC(=O)CC2(CCCC2)CC(=O)N[C@H](C(=O)O)CCCCNC1=O [Compound #3] | detection of free IL-17, but not modulator-bound IL-17
O=C(CC1(CC(=O)N2CCCC2)CCCC1)NCCc1ccc(NC(=O)[C@H](Cc2ccccc2Cl)NC(=O)C(F)(F)c2ccccc2)cc1 [Compound #6] | detection of free IL-17, but not modulator-bound IL-17
NC(=O)CC[C@H]1NC(=O)[C@@H](Cc2ccc(NC(=O)[C@H](Cc3ccccc3Cl)NC(=O)Cc3ccc(F)cc3)cc2)NC(=O)CC2(CCCC2)CC(=O)NCCCCCNC1=O [Compound #2] | detection of free IL-17, but not modulator-bound IL-17

The molecules below were run against T2, human IL-17 (interleukin 17A), recombinant, free (not bound to a small molecule modulator) (human, UniProt Q16552 24-155, limits assumed) (assay: sandwich ELISA: plate coated with capture antibody of DuoSet DY317, IL-17A titrated in 0.1% DMSO vehicle, mAb4538 at 500 ng/mL as detection agent, streptavidin-HRP readout). Conditions: not given.
T2 construct: Recombinant IL-17 used as calibrator in the sandwich ELISAs; also called IL-17A; free IL-17
T2 sequence (Q16552 24-155 limits assumed): as the sequence (Q16552 24-155) above
Procedure: as §1
Samples were prepared by incubating titrated IL-17 with SM modulators at final concentration of 10 μM. IL-17 levels were measured in ELISA assay by adding 95 μL/well samples to the capture antibody coated plates. Plates were kept at room temperature for 30 minutes and then 5 μL/well of detecting agent were added to a final of 500 ng/mL, kept at room temperature for another 30 minutes, followed by washing 6×400 μL/well on plate washer. […] Reaction was then stopped by addition of 50 μL/well of stop solution and plates were measured in plate reader at 450-540 nm.
as §2

Molecule | binding result
B1 | binds
